Experimental data from US12208110B2 (priority 2020, dated 2025).
pEC50: −log10 of the molar value. Read-outs that look alike come from different tables or passages of the source.

Assays:
Type in all cases: cell-based
SARS-CoV-2 = experiment: microbe, parasite or virus in culture; details: Severe acute respiratory syndrome coronavirus 2, 48 h
[1] = MT4 cytotoxicity analysis (CellTiter-Glo); details: human
Protocol: Example 79: MT4 Cytotoxicity Analysis
3-fold serially diluted compound in DMSO, ranging from 2.5 uM to 10 mM, were added by acoustic transfer (Echo) in quadruplicate into black 384-well plates at 200 nl/well. After compound addition, 40 ul MT-4 cells at 80,000/ml were added to each well using a MicroFlo liquid dispenser (BioTek, Winooski, VT) and the cells were cultured for five days at 37° C. Following the incubation, cell viability was determined by adding 35 μL of CellTiter-Glo viability reagent and mixed thoroughly using ViaFlo 384 well workstation. The mixture was incubated for at least 10 minutes at 25° C., and the luminescence signal was quantified on an EnVision plate reader.

[2] = tested on: RSV-Fluc (Recombinant Respiratory Syncytial virus strain A2 containing the firefly luciferase reporter); experiment: microbe, parasite or virus in culture; details: human respiratory syncytial virus, NHBE, 72 h, read-out: RSV-Fluc EC50 (nM, NHBE)

Compound | pEC50 (SARS-CoV-2) | CC50 at 5 days ([1]; MT4 CC50 (nM)) [nM] | EC50 [2] [nM] | CC50 at 5 days ([1]; MT-4 cells, five days, CellTiter-Glo, read-out: MT4 CC50) [nM]
CCCCCCCCCCCCCCCCCCOC[C@H](COc1cc(F)cc(C#N)c1)OP(=O)(O)OC[C@H]1O[C@@](C#N)(c2ccc3c(N)ncnn23)[C@H](O)[C@@H]1O [Example 39, ((2R,3S,4R,5R)-5-(4-aminopyrrolo[2,1-f][1,2,4]triazin-7-yl)-5-cyano-3,4-dihydroxytetrahydrofuran-2-yl)methyl ((R)-1-(3-cyano-5-fluorophenoxy)-3-(octadecyloxy)propan-2-yl) hydrogen phosphate] | 6.72 | 2800 | 78 | –
CCCCCCCCCCCCCCCCCCOC[C@H](COc1ccc(C#N)cn1)OP(=O)(O)OC[C@H]1O[C@@](C#N)(c2ccc3c(N)ncnn23)[C@H](O)[C@@H]1O [Example 41, ((2R,3S,4R,5R)-5-(4-aminopyrrolo[2,1-f][1,2,4]triazin-7-yl)-5-cyano-3,4-dihydroxytetrahydrofuran-2-yl)methyl ((R)-1-((5-cyanopyridin-2-yl)oxy)-3-(octadecyloxy)propan-2-yl) hydrogen phosphate] | 6.89 | 1900 | 63 | –
CCCCCCCCCCCCCCCCCCOC[C@H](COP(=O)(O)OC[C@H]1O[C@@](C#N)(c2ccc3c(N)ncnn23)[C@H](O)[C@@H]1O)Nc1ccc(C#N)cn1 [Example 42, ((2R,3S,4R,5R)-5-(4-aminopyrrolo[2,1-f][1,2,4]triazin-7-yl)-5-cyano-3,4-dihydroxytetrahydrofuran-2-yl)methyl ((R)-2-((5-cyanopyridin-2-yl)amino)-3-(octadecyloxy)propyl) hydrogen phosphate] | 5.34 | 550 | 180 | –
CCCCCCCCCCCCCCCCCCOC[C@H](COP(=O)(O)OC[C@H]1O[C@@](C#N)(c2ccc3c(N)ncnn23)[C@H](O)[C@@H]1O)OCc1cncc(S(C)(=O)=O)c1 [Example 43, ((2R,3S,4R,5R)-5-(4-aminopyrrolo[2,1-f][1,2,4]triazin-7-yl)-5-cyano-3,4-dihydroxytetrahydrofuran-2-yl)methyl ((R)-2-((5-(methylsulfonyl)pyridin-3-yl)methoxy)-3-(octadecyloxy)propyl) hydrogen phosphate] | 7.10 | 280 | 59 | –
CCCCCCCCCCCCCCCCCC(=O)NC[C@H](COP(=O)(O)OC[C@H]1O[C@@](C#N)(c2ccc3c(N)ncnn23)[C@H](O)[C@@H]1O)OCc1cc(F)cc(C#N)c1 [Example 45, ((2R,3S,4R,5R)-5-(4-aminopyrrolo[2,1-f][1,2,4]triazin-7-yl)-5-cyano-3,4-dihydroxytetrahydrofuran-2-yl)methyl ((R)-2-((3-cyano-5-fluorobenzyl)oxy)-3-stearamidopropyl) hydrogen phosphate] | 6.85 | 950 | 82 | –
CCCCCCCCCCCCCCCCCCOC[C@H](COc1ccc(C#N)nn1)OP(=O)(O)OC[C@H]1O[C@@](C#N)(c2ccc3c(N)ncnn23)[C@H](O)[C@@H]1O [Example 46, ((2R,3S,4R,5R)-5-(4-aminopyrrolo[2,1-f][1,2,4]triazin-7-yl)-5-cyano-3,4-dihydroxytetrahydrofuran-2-yl)methyl ((R)-1-((6-cyanopyridazin-3-yl)oxy)-3-(octadecyloxy)propan-2-yl) hydrogen phosphate] | 6.92 | 420 | 26 | –
CCCCCCCCCCCCCCCCCCNC(=O)[C@H](COP(=O)(O)OC[C@H]1O[C@@](C#N)(c2ccc3c(N)ncnn23)[C@H](O)[C@@H]1O)OCc1cc(F)cc(C#N)c1 [Example 47, ((2R,3S,4R,5R)-5-(4-aminopyrrolo[2,1-f][1,2,4]triazin-7-yl)-5-cyano-3,4-dihydroxytetrahydrofuran-2-yl)methyl ((S)-2-((3-cyano-5-fluorobenzyl)oxy)-3-(octadecylamino)-3-oxopropyl) hydrogen phosphate] | 6.92 | 420 | 32 | –
CCCCCCCCCCCCCCCCCCOC[C@H](COP(=O)(O)OC[C@H]1O[C@@](C#N)(c2ccc3c(N)ncnn23)[C@H](O)[C@@H]1O)NC(=O)c1ccccc1C#N [Example 58, ((2R,3S,4R,5R)-5-(4-aminopyrrolo[2,1-f][1,2,4]triazin-7-yl)-5-cyano-3,4-dihydroxytetrahydrofuran-2-yl)methyl ((R)-2-(2-cyanobenzamido)-3-(octadecyloxy)propyl) hydrogen phosphate] | 5.29 | 43000 | 300 | –
CCCCCCCCCCCCCCOCCOP(=O)(O)OC[C@H]1O[C@@](C#N)(c2ccc3c(N)ncnn23)[C@H](O)[C@@H]1O [Example 59, [(2R,3S,4R,5R)-5-(4-Aminopyrrolo[2,1-f][1,2,4]triazin-7-yl)-5-cyano-3,4-dihydroxy-tetrahydrofuran-2-yl]methyl 2-tetradecoxyethyl hydrogen phosphate] | 5.00 | 16000 | 170 | –
CCCCCCCCCCCCCCCCCOCCOP(=O)(O)OC[C@H]1O[C@@](C#N)(c2ccc3c(N)ncnn23)[C@H](O)[C@@H]1O [Example 60, [(2R,3S,4R,5R)-5-(4-aminopyrrolo[2,1-f][1,2,4]triazin-7-yl)-5-cyano-3,4-dihydroxy-tetrahydrofuran-2-yl]methyl 2-heptadecoxyethyl hydrogen phosphate] | 5.70 | 4800 | 240 | –
CCCCCCCCCCCCCCSCCCOP(=O)(O)OC[C@H]1O[C@@](C#N)(c2ccc3c(N)ncnn23)[C@H](O)[C@@H]1O [Example 61, [(2R,3S,4R,5R)-5-(4-aminopyrrolo[2,1-f][1,2,4]triazin-7-yl)-5-cyano-3,4-dihydroxy-tetrahydrofuran-2-yl]methyl 3-tetradecylsulfanylpropyl hydrogen phosphate] | 5.21 | 12000 | 200 | –
CCCCCCCCCCCCCCCCCSCCCOP(=O)(O)OC[C@H]1O[C@@](C#N)(c2ccc3c(N)ncnn23)[C@H](O)[C@@H]1O [Example 62, [(2R,3S,4R,5R)-5-(4-Aminopyrrolo[2,1-f][1,2,4]triazin-7-yl)-5-cyano-3,4-dihydroxy-tetrahydrofuran-2-yl]methyl 3-heptadecylsulfanylpropyl hydrogen phosphate] | 5.01 | 24000 | 230 | –
CCCCCCCCCCCCCCCCCCOC[C@H](COP(=O)(O)OC[C@H]1O[C@@](C#N)(c2ccc3c(N)ncnn23)[C@H](O)[C@@H]1O)OCc1ccc(F)c(Cl)c1F [Example 64, [(2R,3S,4R,5R)-5-(4-Aminopyrrolo[2,1-f][1,2,4]triazin-7-yl)-5-cyano-3,4-dihydroxy-tetrahydrofuran-2-yl]methyl [(2R)-2-[(3-chloro-2,4-difluoro-phenyl)methoxy]-3-octadecoxy-propyl] hydrogen phosphate] | 6.40 | 3100 | 86 | –
CCCCCCCCCCCCCCCCCCOC[C@H](CO[P@](O)(=S)OC[C@H]1O[C@@](C#N)(c2ccc3c(N)ncnn23)[C@H](O)[C@@H]1O)OCc1cc(F)cc(C#N)c1 [Example 68] | 6.44 | – | 120 | 670
CCCCCCCCCCCCCCCCCCC[C@H](COCc1ccc(C#N)cc1F)OP(=O)(O)OC[C@H]1O[C@@](C#N)(c2ccc3c(N)ncnn23)[C@H](O)[C@@H]1O [Example 69, ((2R,3S,4R,5R)-5-(4-aminopyrrolo[2,1-f][1,2,4]triazin-7-yl)-5-cyano-3,4-dihydroxytetrahydrofuran-2-yl)methyl ((R)-1-((4-cyano-2-fluorobenzyl)oxy)henicosan-2-yl) hydrogen phosphate] | 5.00 | 48000 | 400 | –
CCCCCCCCCCCCCCCCCCC[C@H](COP(=O)(O)OC[C@H]1O[C@@](C#N)(c2ccc3c(N)ncnn23)[C@H](O)[C@@H]1O)OCc1ccc(C#N)c(F)c1 [Example 71, ((2R,3S,4R,5R)-5-(4-aminopyrrolo[2,1-f][1,2,4]triazin-7-yl)-5-cyano-3,4-dihydroxytetrahydrofuran-2-yl)methyl ((R)-2-((4-cyano-3-fluorobenzyl)oxy)henicosyl) hydrogen phosphate] | 7.10 | 900 | 68 | –
CCCCCCCCCCCCCCCCCCC[C@H](COP(=O)(O)OC[C@H]1O[C@@](C#N)(c2ccc3c(N)ncnn23)[C@H](O)[C@@H]1O)OCc1ccccc1 [Example 72, ((2R,3S,4R,5R)-5-(4-aminopyrrolo[2,1-f][1,2,4]triazin-7-yl)-5-cyano-3,4-dihydroxytetrahydrofuran-2-yl)methyl ((R)-2-(benzyloxy)henicosyl) hydrogen phosphate] | 5.96 | 3800 | 190 | –
CCCCCCCCCCCCCCC#CC[C@H](COP(=O)(O)OC[C@H]1O[C@@](C#N)(c2ccc3c(N)ncnn23)[C@H](O)[C@@H]1O)OCc1ccccc1 [Example 73, ((2R,3S,4R,5R)-5-(4-aminopyrrolo[2,1-f][1,2,4]triazin-7-yl)-5-cyano-3,4-dihydroxytetrahydrofuran-2-yl)methyl ((R)-2-(benzyloxy)nonadec-4-yn-1-yl) hydrogen phosphate] | 6.37 | 3500 | 58 | –
